These results are taken from ChEMBL document CHEMBL1201862, “PubChem BioAssay data set” (2004).

Test systems include SK-MEL-28; HOP-62; COLO 205; ACHN; T47D; K562; NCI-H522; U-251; UACC-62; SN12C; MDA-MB-231; SK-OV-3; HT-29; PC-3; EKVX.
Experiment in all cases: NCI-60 cell line screen, 48 h

Each structure is given as a SMILES string.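 96-well plates; 48 h exposure; 5 concentrations. Endpoints by linear interpolation between flanking doses. Not reached: highest tested concentration assigned. GI50 = concentration required for 50% inhibition of growth.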 Active and inactive are the calls of the source. Rule as the data show it: active = GI50 up to about 1.1 µM and inactive = higher. Bounds are passed on as bounds.

On to `O=C1c2ccccc2C(=O)c2c(OCC3CO3)ccc(OCC3CO3)c21` (stereo not drawn), for which the GI50 in the test with SK-MEL-28 was 5.47 µM (inactive); in the test with HOP-62, 1.95 µM (inactive); in the test with COLO 205, 4.44 µM (inactive); with ACHN it was 0.964 µM (active); with T47D, 6 µM (inactive); with K562, 0.982 µM (active). The GI50 in the test with NCI-H522 was 3.26 µM (inactive); in the test on U-251, 2.92 µM (inactive); in the test with UACC-62, 2.1 µM (inactive); in the test on SN12C, 1.07 µM (active); in the test with MDA-MB-231 it was 12.5 µM (inactive); with SK-OV-3, 12.4 µM (inactive). The GI50 with HT-29 was 4.84 µM (inactive); in the test with PC-3, 4.42 µM (inactive); with EKVX, 12.5 µM (inactive).
Take `Cc1cc(=O)oc2cc(O)c(CN(C)CC(=O)O)cc12`: the GI50 in the test on SK-MEL-28, in the test with COLO 205, in the test with ACHN, in the test with T47D, with K562 and with NCI-H522 was > 100 µM (inactive) throughout. The GI50 in the test on U-251, in the test with UACC-62, in the test with SN12C, in the test on MDA-MB-231, in the test with HT-29 and with PC-3 was > 100 µM (inactive) in each case. Moreover, the GI50 in the test on EKVX was > 100 µM (inactive).
On to `C=CCNS(=O)(=O)c1ncnc2[nH]cnc12`, for which the GI50 in the test with SK-MEL-28 was > 100 µM (inactive); in the test with HOP-62, > 100 µM (inactive); with COLO 205, > 100 µM (inactive); with ACHN it was > 100 µM (inactive); with T47D it was > 100 µM (inactive); with K562, 10.5 µM (inactive). For the same compound, the GI50 was > 100 µM (inactive) with NCI-H522; > 100 µM (inactive) in the test with U-251; > 100 µM (inactive) in the test with UACC-62; 55.6 µM (inactive) in the test with SN12C; > 100 µM (inactive) in the test on MDA-MB-231; > 100 µM (inactive) in the test on SK-OV-3. Moreover, the GI50 in the test with HT-29, in the test with PC-3 and with EKVX was > 100 µM (inactive) throughout.
Turning to `C=C(C)C1CCC2=CC(CC3(C)OC3C3=CC(C(=O)OC)=C(C1)O3)OC2=O` (stereo not drawn), the GI50 in the test with SK-MEL-28 was > 100 µM (inactive); with HOP-62, > 100 µM (inactive); with ACHN, > 100 µM (inactive); with T47D, 32.9 µM (inactive); with K562, > 100 µM (inactive); with NCI-H522 it was 85.9 µM (inactive). Besides, the GI50 in the test on U-251 is > 100 µM (inactive); in the test on SN12C, > 100 µM (inactive); in the test on MDA-MB-231, 93.3 µM (inactive); with HT-29, > 100 µM (inactive); in the test on PC-3, > 100 µM (inactive); with EKVX it was > 100 µM (inactive).
Turning to `CCCCc1ccc(Nc2nc3c(ncn3COCCBr)c(=O)[nH]2)cc1`, the GI50 was > 100 µM (inactive) in the test with HOP-62; > 100 µM (inactive) in the test with COLO 205; > 100 µM (inactive) in the test with ACHN; 40.1 µM (inactive) with T47D; > 100 µM (inactive) in the test with K562; > 100 µM (inactive) with NCI-H522. Besides, the GI50 in the test with U-251, in the test with UACC-62, in the test on SN12C, in the test on MDA-MB-231, with SK-OV-3 and in the test on HT-29 was > 100 µM (inactive) in each case. The GI50 in the test with PC-3 and with EKVX was > 100 µM (inactive) throughout.
On to `Cc1ccc(S(=O)(=O)N2CCCSCCSCCCSCC2)cc1`, for which the GI50 with SK-MEL-28, with HOP-62, in the test on COLO 205, with T47D, in the test on K562 and in the test on NCI-H522 was > 100 µM (inactive) each time. Also, the GI50 in the test on U-251, in the test on UACC-62, with SN12C, in the test with MDA-MB-231, in the test with SK-OV-3 and in the test on HT-29 was > 100 µM (inactive) in each case. Also, the GI50 in the test on PC-3 and in the test on EKVX was > 100 µM (inactive) throughout.
Regarding `CO[C@@H]1C[C@H]2[C@@H]3CC[C@H]([C@H](C)COC(C)=O)[C@@]3(C)CC[C@@H]2[C@@]2(C)CC[C@H]3C[C@]312`, the GI50 in the test with SK-MEL-28 was > 100 µM (inactive); with HOP-62 it was > 100 µM (inactive); in the test on COLO 205, 34 µM (inactive); in the test with ACHN it was > 100 µM (inactive); with T47D, > 100 µM (inactive); in the test with K562, 63.1 µM (inactive). Further, the GI50 with NCI-H522, in the test with U-251, in the test with SN12C, in the test on MDA-MB-231, in the test on HT-29 and in the test with PC-3 was > 100 µM (inactive) in each case. For the same compound, the GI50 with EKVX was > 100 µM (inactive).
As for `C=C1C(=O)OC2/C=C(\C)C(=O)CC3OC(C)(C)OC3(C)CC(OC(=O)/C(C)=C/C)C12` (stereo not drawn), the GI50 is 11.9 µM (inactive) in the test with SK-MEL-28; 58.1 µM (inactive) in the test on HOP-62; 6.35 µM (inactive) in the test with COLO 205; 3.68 µM (inactive) in the test on ACHN; 17.6 µM (inactive) in the test with T47D; 4.05 µM (inactive) in the test with K562. The GI50 in the test with NCI-H522 was 2.99 µM (inactive); in the test on U-251, 27.5 µM (inactive); in the test with UACC-62, 9.98 µM (inactive); with SN12C it was 20.7 µM (inactive); with MDA-MB-231, 23.6 µM (inactive); in the test with SK-OV-3, 55.5 µM (inactive). Also, the GI50 was 7.89 µM (inactive) with HT-29, 25.8 µM (inactive) in the test with PC-3 and 14.2 µM (inactive) with EKVX.
As to `CN/C(=N\c1ccc(OC)c2ccccc12)SC`, the GI50 with SK-MEL-28, in the test on HOP-62, in the test with COLO 205, with ACHN, with T47D and in the test with K562 was > 10 µM (inactive) each time. In addition, the GI50 in the test on NCI-H522, in the test on U-251, in the test on UACC-62, in the test on SN12C, with MDA-MB-231 and in the test on SK-OV-3 was > 10 µM (inactive) throughout. In addition, the GI50 in the test on HT-29 and with PC-3 was > 10 µM (inactive) throughout.
As for `COc1ccc2c(c1)SC1=Nc3sc4cc(OC)ccc4[n+]3CN12`, the GI50 in the test on HOP-62 was 49.8 µM (inactive); in the test with COLO 205, 2.96 µM (inactive); in the test with ACHN, 49.8 µM (inactive); in the test with T47D it was 4.99 µM (inactive); with K562 it was 4.16 µM (inactive); in the test with NCI-H522 it was 1.38 µM (inactive). Moreover, the GI50 in the test on U-251 was 4.34 µM (inactive); with UACC-62, 11.7 µM (inactive); with SN12C it was 25.5 µM (inactive); with MDA-MB-231 it was 29 µM (inactive); in the test with SK-OV-3, 70.5 µM (inactive); with HT-29, 16.2 µM (inactive). The figures for the GI50 in the test with PC-3 and with EKVX were 36.5 µM (inactive) and 26.4 µM (inactive), respectively.
As for `CCOC(=O)c1ccc(NC(NC(=O)CC)(C(F)(F)F)C(F)(F)F)cc1`, the GI50 with SK-MEL-28 is > 100 µM (inactive); with HOP-62, > 100 µM (inactive); with COLO 205 it was > 100 µM (inactive); in the test with ACHN, 55 µM (inactive); in the test on T47D, > 100 µM (inactive); in the test with K562 it was 39.3 µM (inactive). Further, the GI50 in the test on NCI-H522 was > 100 µM (inactive); with U-251, > 100 µM (inactive); in the test with UACC-62, 34.4 µM (inactive); with MDA-MB-231, > 100 µM (inactive); in the test on SK-OV-3, > 100 µM (inactive); in the test on HT-29, > 100 µM (inactive). The figures for the GI50 with PC-3 and in the test with EKVX were 60.3 µM (inactive) and > 100 µM (inactive), respectively.
As for `O=C1C[C@H]2[C@@H](O1)[C@@H](O)CN1C(=O)c3ccccc3[C@H]21`, the GI50 in the test with SK-MEL-28, with HOP-62, with COLO 205, in the test on ACHN, with T47D and in the test on K562 was > 100 µM (inactive) throughout. Also, the GI50 in the test with NCI-H522, in the test on U-251, with UACC-62, with SN12C, in the test on MDA-MB-231 and in the test on SK-OV-3 was > 100 µM (inactive) in each case. The GI50 in the test on HT-29, with PC-3 and in the test with EKVX was > 100 µM (inactive) throughout.
`Oc1ccc(-c2nn3c(CCCCCCCCc4nnc5sc(-c6ccc(O)cc6)nn45)nnc3s2)cc1`: the GI50 with SK-MEL-28 was > 100 µM (inactive); in the test on HOP-62, > 100 µM (inactive); in the test with COLO 205, > 100 µM (inactive); with ACHN, > 100 µM (inactive); with T47D it was 55.1 µM (inactive); in the test with K562, > 100 µM (inactive). Further, the GI50 in the test on NCI-H522, in the test on U-251, in the test on UACC-62, in the test on SN12C, in the test on MDA-MB-231 and in the test with SK-OV-3 was > 100 µM (inactive) in each case. The GI50 in the test on HT-29, in the test on PC-3 and in the test with EKVX was > 100 µM (inactive) in each case.
As for `CC(CN(C)C)C(O)(c1ccccc1)c1ccccc1` (stereo not drawn), the GI50 in the test on SK-MEL-28, with HOP-62, in the test with COLO 205, with ACHN, in the test with T47D and in the test with K562 was > 100 µM (inactive) throughout. The GI50 with NCI-H522, in the test with U-251, with UACC-62, in the test on SN12C, in the test with MDA-MB-231 and in the test on SK-OV-3 was > 100 µM (inactive) each time. For the same compound, the GI50 in the test with HT-29, with PC-3 and in the test with EKVX was > 100 µM (inactive) in each case.
